Key:
[1] = test system: macrophage-lipid complex on the arterial endothelium; test: Fatty streak analysis: macrophage-lipid complex on main artery of cholesterol-fed rabbits (Example 6); type: in vivo, New Zealand White rabbit; details: 1 mg/kg Lovastatin
Source text: RC4 diet comprises 7.6% moisture, 22.8% crude protein, 2.8% crude fat, 8.8% crude ash, 14.4% crude cellulose and 43.6% soluble nitrogen-free substances. The rabbits were bred for 6 weeks while being allowed free access to the diets and water. The rabbits bred in (Step 1) were sacrificed and their chest were incised. The main artery was cut out therefrom in a length of about 5 cm downward from the site 1 cm above the aortic valve and the fat surrounding the main artery was removed. The main artery was incised in the middle along the longitudinal axis and pinned to a dish. The moist artery was photographed and, then, staining of fatty streak was carried out in accordance with the method of […]., et al. (J. Lab. Clin. […] A part of the incised main artery was washed three times by 2 min. with anhydrous propylene glycol and stained for 30 min. with a saturated solution of Oil Red O (ORO, Sigma Co.) dissolved in propylene glycol. Thereafter, the artery was washed twice by 3 min. with 85% propylene glycol to remove remaining staining solution and, then washed with physical saline. The artery was photographed and the photograph was traced. The area of stained region (fatty streak region) was determined with an image analyzer (LEICA, Q-600, Germany) and its proportion (%) to the total arterial area was calculated. On the other hand, the other part of the main artery was stained in accordance with hematoxylin-eosin (H&E) and Masson's trichrome staining methods and observed under a microscope to confirm whether the macrophage-lipid complexes were accumulated in the intima, internus, elastic lamina and media.

[2] = Blood total cholesterol and triglyceride in cholesterol-fed rabbits (Example 6); type: in vivo, New Zealand White rabbit; details: 1% cholesterol diet, 6 weeks, 1 mg/kg Lovastatin, 0.1% naringin or naringenin
Experimental: Blood samples were taken from the rats of the three dietary groups and plasma HDL fractions were separated therefrom by using HDL-cholesterol reagent (Sigma Chemical Co., Cat. No. 352-3) containing dextran-sulfate. Total cholesterol and HDL-cholesterol levels were determined by using Sigma Diagnostic Kit Cat. No. 352-100(Sigma Chemical Co., […] et al., Clin. Chem., 20, 470-475(1974)). Neutral lipid level was determined by using Sigma Diagnostic Kit Cat. No. 339-50(Bucolo, G. and David, H., Clin. Chem., 19, 476-482(1973)). The result is shown in Table III, wherein the total plasma cholesterol levels in naringin and naringenin-fed rat groups decreased by 32% and 18%, respectively, as compared with that of the control group. […] RC4 diet comprises 7.6% moisture, 22.8% crude protein, 2.8% crude fat, 8.8% crude ash, 14.4% crude cellulose and 43.6% soluble nitrogen-free substances. The rabbits were bred for 6 weeks while being allowed free access to the diets and water. Further, blood samples were taken from the rabbits and total cholesterol and triglyceride levels were determined in accordance with the same procedure in Example 4.

hepatic cells = details: rabbits, 1% cholesterol diet, six weeks; 1 mg/kg Lovastatin, 0.1% naringin
Experimental: The same procedure as in (Step 1) was repeated except that 30 three-month old New Zealand White rabbits (Yeonam Horticulture and Animal Husbandry College, Korea) each weighing about 2.5 to 2.6 kg were used in place of the rats, and the rabbits were fed for six weeks with three different diets, i.e., RC4 diet containing 1% cholesterol (Control group); 1% cholesterol plus 1 mg/kg Lovastatin® (Comparative group); and 1% cholesterol plus 0.1% naringin, respectively.
Thereafter, the livers were separated from the rabbits and the histopathological observations were carried out as follows.
The rabbits were anesthetized with an intramuscular injection of ketamine (75 mg/kg) and subjected to an abdominal incision. […] The fixed liver was washed sufficiently with water, dehydrated stepwise with 70%, 80%, 90% and 100% ethanol and, then, embedded in paraffin. The embedded liver was sectioned in 4 μm thickness with a microtome and stained with hematoxylin and eosin. The stained liver specimen was made transparent with xylene, mounted with permount, and then observed under a microscope to confirm the presence of lesions.

[3] = test system: creatin kinase in the liver; details: in vivo; cited from earlier work

Structure (SMILES): CC[C@H](C)C(=O)O[C@H]1C[C@@H](C)C=C2C=C[C@H](C)[C@H](CC[C@@H]3C[C@@H](O)CC(=O)O3)[C@H]21 [Lovastatin, reference compound]
- layer of macrophage-lipid complex on the arterial endothelium (FIGS. 1A-1C) ([1]; 0.1% naringin, control: thick layer): no or very thin layers of macrophage-lipid complex
- area of macrophage-lipid complex accumulated on the arterial endothelium, compared to control group ([1]; 1% cholesterol diet, 6 weeks, 0.1% naringin or naringenin): decreased significantly
- M-L (macrophage-lipid) complex area ([1]; proportion of total arterial area, 1% cholesterol diet, 6 weeks, 0.1% naringin or naringenin, control 35): 5%
- Triglyceride ([2]; control 56): 66 mg/dL
- Total cholesterol ([2]; control 1143): 1210 mg/dL
- microscopic features of the liver (FIGS. 2A-2C) (hepatic cells): irregularly arranged and enlarged and a large amount of fat is deposited therein
- adverse side effect [3]: increasing creatin kinase in the liver
